Source: ChEMBL document CHEMBL4507276 (2021)

Assays:
[1] = molecular target: Kappa-type opioid receptor (Homo sapiens) (UniProt P41145); details: Compound concentration 10.0 uM
[2] = molecular target: T1, 5-hydroxytryptamine receptor 1A (Homo sapiens) (UniProt P08908); details: Compound concentration 10.0 uM
T1 sequence (whole entry): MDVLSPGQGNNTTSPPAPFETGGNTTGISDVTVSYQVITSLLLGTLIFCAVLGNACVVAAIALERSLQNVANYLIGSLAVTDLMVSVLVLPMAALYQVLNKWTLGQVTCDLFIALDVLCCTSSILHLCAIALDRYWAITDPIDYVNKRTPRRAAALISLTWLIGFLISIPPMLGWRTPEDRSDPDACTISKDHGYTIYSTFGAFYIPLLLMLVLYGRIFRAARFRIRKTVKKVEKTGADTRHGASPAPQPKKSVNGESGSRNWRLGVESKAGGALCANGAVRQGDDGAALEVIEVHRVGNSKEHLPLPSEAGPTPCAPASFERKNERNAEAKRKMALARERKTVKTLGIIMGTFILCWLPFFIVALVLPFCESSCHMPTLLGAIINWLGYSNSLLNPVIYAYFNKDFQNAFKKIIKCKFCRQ

[3] = molecular target: T2, Tyrosine-protein kinase receptor TYRO3 (Homo sapiens) (UniProt Q06418); details: Compound concentration 1000.0 nM
T2 sequence (whole entry): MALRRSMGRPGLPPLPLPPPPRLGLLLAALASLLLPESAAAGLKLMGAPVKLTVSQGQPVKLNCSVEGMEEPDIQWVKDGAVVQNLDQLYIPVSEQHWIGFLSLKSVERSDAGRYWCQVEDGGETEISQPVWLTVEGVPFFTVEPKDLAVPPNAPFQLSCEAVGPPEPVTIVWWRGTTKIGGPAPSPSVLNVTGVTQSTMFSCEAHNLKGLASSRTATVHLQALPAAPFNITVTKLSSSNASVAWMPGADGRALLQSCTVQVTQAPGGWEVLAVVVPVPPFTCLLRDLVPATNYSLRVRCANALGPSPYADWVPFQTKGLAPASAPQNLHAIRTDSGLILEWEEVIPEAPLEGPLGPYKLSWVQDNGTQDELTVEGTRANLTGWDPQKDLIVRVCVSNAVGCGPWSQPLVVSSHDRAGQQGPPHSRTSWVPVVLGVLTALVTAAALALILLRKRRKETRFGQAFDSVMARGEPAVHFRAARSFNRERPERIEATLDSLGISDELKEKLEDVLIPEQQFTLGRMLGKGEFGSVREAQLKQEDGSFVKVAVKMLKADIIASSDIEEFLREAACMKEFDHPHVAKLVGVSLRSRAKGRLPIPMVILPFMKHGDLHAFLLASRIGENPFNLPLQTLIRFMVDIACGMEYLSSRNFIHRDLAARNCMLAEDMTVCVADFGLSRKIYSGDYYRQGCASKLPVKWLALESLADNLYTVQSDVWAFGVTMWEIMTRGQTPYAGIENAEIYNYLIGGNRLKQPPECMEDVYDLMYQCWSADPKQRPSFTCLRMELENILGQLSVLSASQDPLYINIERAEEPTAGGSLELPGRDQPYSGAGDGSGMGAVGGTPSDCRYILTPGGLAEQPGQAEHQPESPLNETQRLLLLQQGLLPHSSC

[4] = molecular target: Dual specificity mitogen-activated protein kinase kinase 5 (Homo sapiens) (UniProt Q13163); details: Compound concentration 1000.0 nM
[5] = molecular target: Casein kinase I isoform alpha-like (Homo sapiens) (UniProt Q8N752); details: Compound concentration 1000.0 nM
[6] = molecular target: T3, Ephrin type-A receptor 8 (Homo sapiens) (UniProt P29322); details: Compound concentration 1000.0 nM
T3 sequence (whole entry): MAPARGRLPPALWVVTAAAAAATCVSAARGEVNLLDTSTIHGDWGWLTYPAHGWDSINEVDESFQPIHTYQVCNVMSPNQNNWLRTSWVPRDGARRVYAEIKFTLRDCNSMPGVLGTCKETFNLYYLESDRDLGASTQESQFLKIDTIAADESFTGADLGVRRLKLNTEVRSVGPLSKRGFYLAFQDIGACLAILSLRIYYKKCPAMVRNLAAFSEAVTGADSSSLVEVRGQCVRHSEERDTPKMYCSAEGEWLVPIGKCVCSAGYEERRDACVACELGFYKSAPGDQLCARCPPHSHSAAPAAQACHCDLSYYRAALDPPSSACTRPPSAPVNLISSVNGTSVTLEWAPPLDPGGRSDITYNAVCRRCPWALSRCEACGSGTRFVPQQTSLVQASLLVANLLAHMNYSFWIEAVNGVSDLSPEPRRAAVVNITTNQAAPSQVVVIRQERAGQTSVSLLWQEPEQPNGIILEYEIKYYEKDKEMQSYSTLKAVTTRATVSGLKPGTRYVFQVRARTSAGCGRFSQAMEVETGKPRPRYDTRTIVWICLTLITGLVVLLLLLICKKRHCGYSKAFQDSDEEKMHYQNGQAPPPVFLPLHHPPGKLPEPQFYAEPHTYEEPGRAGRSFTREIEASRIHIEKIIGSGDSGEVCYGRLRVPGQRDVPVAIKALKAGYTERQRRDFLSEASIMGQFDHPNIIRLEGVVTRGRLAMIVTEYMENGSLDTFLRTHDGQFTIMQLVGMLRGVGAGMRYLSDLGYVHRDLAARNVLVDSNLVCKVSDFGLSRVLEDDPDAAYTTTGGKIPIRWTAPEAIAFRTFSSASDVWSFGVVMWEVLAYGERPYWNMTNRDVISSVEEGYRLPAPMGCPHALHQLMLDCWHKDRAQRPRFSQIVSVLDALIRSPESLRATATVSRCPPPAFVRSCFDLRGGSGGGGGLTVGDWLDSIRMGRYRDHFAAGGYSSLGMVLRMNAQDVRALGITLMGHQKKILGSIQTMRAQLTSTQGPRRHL

[7] = molecular target: T4, Muscarinic acetylcholine receptor M4 (Homo sapiens) (UniProt P08173); details: Compound concentration 10.0 uM
T4 sequence (whole entry): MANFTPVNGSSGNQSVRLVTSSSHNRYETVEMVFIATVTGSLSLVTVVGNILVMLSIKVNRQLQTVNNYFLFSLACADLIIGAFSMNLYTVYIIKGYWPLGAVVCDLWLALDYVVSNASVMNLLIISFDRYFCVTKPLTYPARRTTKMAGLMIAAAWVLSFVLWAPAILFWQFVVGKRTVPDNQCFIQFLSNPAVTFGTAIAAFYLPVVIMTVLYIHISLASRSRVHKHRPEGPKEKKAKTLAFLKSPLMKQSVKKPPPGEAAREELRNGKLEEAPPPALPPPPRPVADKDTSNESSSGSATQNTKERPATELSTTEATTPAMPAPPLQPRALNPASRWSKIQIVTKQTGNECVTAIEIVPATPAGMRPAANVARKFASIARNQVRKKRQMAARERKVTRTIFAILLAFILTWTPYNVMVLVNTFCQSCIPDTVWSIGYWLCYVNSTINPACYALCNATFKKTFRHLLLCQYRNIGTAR

Sequence of Kappa-type opioid receptor (Homo sapiens) (P41145 whole entry): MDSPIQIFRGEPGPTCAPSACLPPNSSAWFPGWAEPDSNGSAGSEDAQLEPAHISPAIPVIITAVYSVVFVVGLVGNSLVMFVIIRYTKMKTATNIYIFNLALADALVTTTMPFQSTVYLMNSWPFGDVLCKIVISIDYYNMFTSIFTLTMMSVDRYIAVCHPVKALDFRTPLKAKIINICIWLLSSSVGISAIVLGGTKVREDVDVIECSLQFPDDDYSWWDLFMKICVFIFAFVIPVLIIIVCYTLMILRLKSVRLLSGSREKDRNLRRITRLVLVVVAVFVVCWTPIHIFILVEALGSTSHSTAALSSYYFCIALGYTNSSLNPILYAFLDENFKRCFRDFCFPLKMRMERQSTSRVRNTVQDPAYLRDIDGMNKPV
Sequence of Casein kinase I isoform alpha-like (Homo sapiens) (Q8N752 whole entry, canonical isoform): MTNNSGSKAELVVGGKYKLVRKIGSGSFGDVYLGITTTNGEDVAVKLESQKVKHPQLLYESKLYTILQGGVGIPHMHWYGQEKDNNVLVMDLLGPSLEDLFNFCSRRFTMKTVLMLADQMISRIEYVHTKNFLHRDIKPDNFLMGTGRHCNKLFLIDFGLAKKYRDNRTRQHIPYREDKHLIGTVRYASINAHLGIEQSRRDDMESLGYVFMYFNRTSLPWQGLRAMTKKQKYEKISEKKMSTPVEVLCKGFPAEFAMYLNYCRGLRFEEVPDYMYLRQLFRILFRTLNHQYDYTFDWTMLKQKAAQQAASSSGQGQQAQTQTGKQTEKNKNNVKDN
Sequence of Dual specificity mitogen-activated protein kinase kinase 5 (Homo sapiens) (Q13163 whole entry, canonical isoform): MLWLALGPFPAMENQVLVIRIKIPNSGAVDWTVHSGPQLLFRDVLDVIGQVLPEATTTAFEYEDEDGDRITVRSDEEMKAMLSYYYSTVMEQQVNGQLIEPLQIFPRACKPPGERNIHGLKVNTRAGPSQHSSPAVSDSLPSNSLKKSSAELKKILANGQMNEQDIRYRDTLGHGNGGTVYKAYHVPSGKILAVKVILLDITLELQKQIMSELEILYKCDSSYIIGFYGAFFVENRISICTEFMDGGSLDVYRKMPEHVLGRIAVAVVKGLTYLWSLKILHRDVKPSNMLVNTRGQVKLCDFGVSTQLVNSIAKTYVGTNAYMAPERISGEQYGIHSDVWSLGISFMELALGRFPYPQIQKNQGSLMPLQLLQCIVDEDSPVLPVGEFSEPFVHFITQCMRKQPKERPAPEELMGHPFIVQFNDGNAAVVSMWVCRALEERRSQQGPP

CN(C)C(=O)Cn1cc(-c2nc(C3(c4ccc(-c5cnc(N)nc5)cc4)CC3)no2)cn1 [BI 0153]
inactive: inhibition [1] 16.2% | inhibition [2] 31.5% | residual activity [3] 83% | residual activity [4] 72% | residual activity [5] 98% | residual activity [6] 87% | inhibition [7] 5.81%

CN(C)C(=O)Cn1cc(-c2nc([C@@](C)(c3ccc(-c4cnc(N)nc4)cc3)C3CC3)no2)cn1 [BI 665915]
inactive: inhibition [1] 33.9% | inhibition [2] 6.78% | residual activity [3] 100% | residual activity [4] 62% | residual activity [5] 100% | residual activity [6] 100% | inhibition [7] 10.3%
